According to US9809640B2, “ApoE peptide dimers and uses thereof” (priority 2010, dated 2017):
Positions of bridges follow the written chain, without caps; N, C: chain ends. Chains are numbered I, II in the order given.

Key:
[1] = Mouse toxicity, maximum tolerated dose by intravenous injection; conditions: in vivo, maximum dose by intravenous injection without deaths after 24 hrs
MB231 cells = assay: Apoptosis after 24 hours of COG445; format: cell-based; conditions: 1-1000 nM
[2] = biological target: T1, I2PP2A (SET) / PP2A catalytic subunit (Homo sapiens, UniProt Q01105); assay: Co-immunoprecipitation of I2PP2A (SET) with PP2A catalytic subunit in MB231 cells; format: cell-based; conditions: 0.1 or 1 μM pre-treatment
T1 construct: endogenous in cells; host or cells: MDA-MB-231
T1 sequence (Q01105 2-290 limits assumed): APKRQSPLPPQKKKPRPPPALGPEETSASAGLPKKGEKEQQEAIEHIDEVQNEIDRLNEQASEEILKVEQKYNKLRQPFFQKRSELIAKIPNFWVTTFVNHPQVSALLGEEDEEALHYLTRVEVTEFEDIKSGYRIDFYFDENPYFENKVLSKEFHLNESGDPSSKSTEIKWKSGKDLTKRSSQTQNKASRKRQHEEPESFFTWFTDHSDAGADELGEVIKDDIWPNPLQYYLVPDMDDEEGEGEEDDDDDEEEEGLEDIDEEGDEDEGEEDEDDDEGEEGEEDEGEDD
Source text: FIG. 12A: Total PP2A activity immunoprecipitated from MDA-MB-231 cells treated with EGF and increasing concentrations of COG445. FIG. 12B: Western blot and densitometry analysis of total c-myc protein levels in U87 cells treated with the indicated concentrations of COG445 in the presence or absence of okadaic acid. FIG. 12C: Immunoprecipitation of the catalytic subunit of PP2A from MDA-MB-231 cells exposed to EGF and two different concentrations of COG445. The blot is probed for I2PP2A (SET) and PP2A catalytic subunit.
(§1) To examine the mechanism of COG445 on PP2A activity, recombinant human PP2A catalytic subunit was incubated with COG445 and activity was measured. […] To further explore the changes of PP2A protein complexes, co-immunoprecipitation experiments were performed on MB231 cells.

[3] = biological target: recombinant human PP2A catalytic subunit (Homo sapiens, UniProt P67775); assay: Recombinant human PP2A catalytic subunit activity; format: biochemical; conditions: up to 10 μM
Sequence of recombinant human PP2A catalytic subunit (P67775 whole entry): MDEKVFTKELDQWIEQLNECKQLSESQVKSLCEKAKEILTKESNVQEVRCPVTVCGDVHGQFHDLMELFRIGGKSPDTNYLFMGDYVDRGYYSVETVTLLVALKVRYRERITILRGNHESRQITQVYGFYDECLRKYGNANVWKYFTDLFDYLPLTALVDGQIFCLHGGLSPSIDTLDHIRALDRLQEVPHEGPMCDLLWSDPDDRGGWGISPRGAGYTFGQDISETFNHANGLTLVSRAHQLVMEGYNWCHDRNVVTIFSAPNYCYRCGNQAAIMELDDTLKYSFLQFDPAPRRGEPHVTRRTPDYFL
Procedure: as §1

PDK1 = PDK1 activation, Western blot; format: cell-based; conditions: U87 and MB231
Source text: (§2) FIGS. 10A-10B. […] FIG. 10A: Western blot analysis of U87 glioblastoma cells exposed to the indicated concentrations of COG445 peptide in the presence of EGF. The blot is probed with antibodies for the activated EGF receptor (P-EGFR), total EGF receptor, activated PDK1 (P-PDK1), and total PDK1. FIG. 10B: Western blot and densitometry analysis of Akt activation induced by EGF in U87 cells in the presence of increasing concentrations of COG445.
(§3) Akt signaling is often dysregulated in cancers thereby promoting cellular survival and proliferation. […] Given the effect of ApoE peptides on other inflammatory pathologies, we investigated the effect of an ApoE peptide dimer on Akt signaling in breast and brain cancer cells. A disulfide dimer of COG112 (SEQ ID NO: 1) was prepared as described in Example 1 (COG445). Adherent breast cancer cells, MDA-MB-231 (MB231), or glioblastoma cells, U87-MG (U87), were serum starved overnight and then exposed to COG445 for 2 hours before stimulating with epidermal growth factor (EGF) for 5 minutes. […] EGFR activation results in the activation of the PI3K/Akt signaling pathway, which is mediated by PDK1 activation.

BV2 microglia cells = assay: LPS-induced nitric oxide production in BV2 microglia cells; format: cell-based
Procedure: FIG. 1. COG 112 inhibits LPS-induced production of inflammatory cytokines in BV2 microglia cells. Inhibition curves for COG112 in the production of NO (green squares), TNFα (red diamonds), and IL-6 (blue triangles) by BV2 microglia. Compounds were added to the final concentrations indicated on the graph along with 100 ng/mL of LPS. After 24 hours the media was removed and assayed by two-site ELISA (BioSource) and quantitated relative to a standard curve on the same plate.
FIG. 3. NO Inhibition curve for COG449. BV2 microglia were treated with COG449 at the final concentrations indicated on the graph, along with 100 ng/mL of LPS. After 24 hours the media was removed and assayed by two-site ELISA (BioSource) and quantitated relative to a standard curve on the same plate.
We also evaluated the various peptides for efficacy in suppressing nitric oxide production induced by LPS stimulation of BV2 microglia cells as a measure of anti-inflammatory activity as well as the maximum dose tolerated in mice (Table I and FIG. 6A). For the LPS assay, EC50 is the concentration of compound that caused a 50% suppression of nitric oxide release from BV2 cells following LPS stimulation. For mouse toxicity, MTD is the maximum dose of the compound that can be given by intravenous injection without causing deaths after 24 hrs. […] Coupling the ApoE domain to a protein transduction domain further enhanced the potency of the dimers.
Low passage BV2 microglial cell cultures are maintained in 10% HI (Heat Inactivated) FBS DMEM media (supplemented with MEM NEAA (Non-Essential Amino Acids), sodium pyruvate and Pen-Strep) and continuously cultured until needed. To determine the IC50 values for NO production, peptides are added to BV2 cultures in 1% HI FBS DMEM media (supplemented with MEM NEAA and sodium pyruvate) at a range of final assay concentrations from 1.0 μM in 2 fold dilutions to 7.8 nM followed immediately by addition of LPS (100 ng/mL final concentration) as previously described (Laskowitz et al. (2001) Exp Neurol, Vol. 167(1): 74-85). After incubating for 18±1 hours, conditioned media is removed for analysis of nitrite (the stable oxidation product of released nitric oxide) by the Griess colorimetric assay (Promega). Remaining cells are assayed for viability in an MTT assay (Promega) and the nitrite assay values are normalized for each concentration using the percent viability of cells in the MTT assay. […] Typically, the absence of LPS exposure to BV2 cells results in levels below the limit of detection in our assays. Similarly, addition of any of the peptides up to 25 μM without LPS results in undetectable NO levels.

Akt = assay: EGF-induced Akt activation, Western blot; format: cell-based
Source text: as §2, §3

With “I: Ac-RQIKIWFQNRRMKWKKCLRVRLASHLRKLRKRLL-NH2 / II: Ac-RQIKIWFQNRRMKWKKCLRVRLASHLRKLRKRLL-NH2 (disulfide I:17-II:17) [COG445, COG112-C-C-COG112]” the MTD at 24 h [1] was 28 mg/kg, the apoptosis (MB231 cells) was “no indication of apoptosis” and the “association of I2PP2A to the catalytic subunit of PP2A” value [2] was “strongly diminished”. The “rate of phosphatase activity” value [3] was “did not have any effect”, the “PDK1 activation (serine 241 phosphorylation)” value (PDK1) was “did not alter” and the EC50 (BV2 microglia cells; 50% suppression of nitric oxide release from BV2 cells following LPS stimulation) was under 1000 nM. The IC50 (BV2 microglia cells; BV2 cells, LPS 100 ng/mL, read-out: IC50 for NO production/release) was 20 nM, the “Akt serine 473 phosphorylation” value (Akt; 100 nM, both cell lines, significant at 1 μM) was “decreased” and the Akt activation (Akt; MB231 and U87 cells, EGF) was “dose-dependent decrease”. The “Akt phosphorylation in the presence of okadaic acid” value (Akt; MB231 cells) was “did not inhibit”.
